Assay results from patent US20260199484A1, “PROTAC DEGRADERS OF MLLT1 AND/OR MLLT3” (DARK BLUE THERAPEUTICS LTD, priority 2024, published 2026).
Blank lines part the entries; values can stand above or below the compound they belong to.

Columns and labels:
MV4-11 cells = test: MV4-11 cellular proliferative assay, Assay Format A (CellTiter-Glo, 120 h); format: cell-based; conditions: Homo sapiens, Assay method A, Table 3, read-out: MV4-11 antiproliferative IC50
Summary of the method: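 MV4-11 cells seeded at 50 cells/well and exposed for 120 h to compound (10 semi-log dilutions, top 30 μM) or DMSO. Viability by CellTiter-Glo luminescence, normalised to DMSO and reference-compound wells; AC50 from Hill fit.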

MLLT1 = biological target: T1, MLLT1 (Homo sapiens, UniProt Q03111); test: MLLT1 HTRF IC50 determination assay (H3K9cro peptide displacement); format: binding
T1 sequence (Q03111 1-559): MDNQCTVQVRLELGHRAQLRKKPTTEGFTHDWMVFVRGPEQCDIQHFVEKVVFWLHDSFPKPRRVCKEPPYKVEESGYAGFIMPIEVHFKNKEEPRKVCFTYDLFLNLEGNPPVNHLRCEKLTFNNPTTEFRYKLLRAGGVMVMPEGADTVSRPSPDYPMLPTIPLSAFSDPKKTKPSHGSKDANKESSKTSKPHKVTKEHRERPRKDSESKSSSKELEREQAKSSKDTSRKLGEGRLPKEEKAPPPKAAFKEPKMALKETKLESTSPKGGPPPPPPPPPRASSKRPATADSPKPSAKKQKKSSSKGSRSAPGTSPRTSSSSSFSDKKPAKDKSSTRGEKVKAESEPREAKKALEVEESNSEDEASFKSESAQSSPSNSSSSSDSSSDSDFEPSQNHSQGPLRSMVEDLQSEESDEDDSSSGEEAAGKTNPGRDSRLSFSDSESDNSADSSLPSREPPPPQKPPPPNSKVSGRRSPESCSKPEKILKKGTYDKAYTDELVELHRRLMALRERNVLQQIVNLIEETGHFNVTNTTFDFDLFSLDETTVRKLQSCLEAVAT
Text: (§1) This procedure is intended to measure the interaction between YEATS proteins and histone peptides modified by an appropriate epigenetic mark and can be used to assay compounds which bind to the YEATS proteins and inhibit this interaction. The assay uses 6His tagged MLLT1 or MLLT3 with an anti-6His antibody conjugated with Eu^3+ chelate (donor) and a biotinylated peptide with Streptavidin conjugated XL-665 (acceptor). When the donor and acceptor labels are in close proximity, by binding of the peptide by MLLT1 or MLLT3, the excitation of the donor (337 nm) triggers a Fluorescence Resonance Energy Transfer (FRET) to the acceptor which then fluoresces at specific wavelength (665 nm).
(§2) This step optimises the protein/peptide ratio that will be used in HTRF screening assay in order to allow the best signal-to-noise ratio. Each new purified protein should be titrate this way as the signal-to-noise ratio may differ from different protein batches. Displacement assay for MLLT1 and MLLT3 was performed by using H3K9 cro peptide (ARTKQTAR(Kcrot)STGGKAPRKQLYK(biotin)).
(§3) A serial dilution of 4× solution of biotinylated peptide was prepared in assay buffer (25 mM HEPES, 20 mM NaCl, 0.05% BSA, 0.05% Tween-20, pH 7.0) covering concentrations from 3.2 μM to 0.2 nM. and 5 μL of each dilution were transferred horizontally to fill 15 columns of a white ProxiPlate-384 Plus shallow well Microplate (Perkin Elmer, USA). A sixteenth column of buffer was also included for a background reference. In parallel, a serial dilution of the 6His-tag protein of interest was prepared in the same way and 5 μL of each dilution were vertically added to the wells containing the peptide dilutions. Buffer has been transferred to the last line of the plate in order to make a no-protein reference. The microplate has been covered and incubated 1 hour at room temperature. A 2× detection mix was prepared in assay buffer by diluting streptavidin conjugated with XL-665 (610SAXLB, Cisbio Bioassays, France) to 1/2000 and anti-6His(Eu) chelate (LANCE Eu-W1024 Anti-6×His, ADO111, Perkinelmer LAS (UK)LTD) to 1/20000, 10 μL were added to each well and the plate has been incubated for 1 to 24 hours at room temperature in the dark. The plate was read in the Pherastar using the HTRF module with dual emission protocol (A=ex. 320 nm em. 665 nm, B=ex. 320 nm em. 620 nm).
(§4) The HTRF ratio was calculated as channel A/B*10000 and the specific signal as follow: specific signal=HTRF Ratio Positive signal—HTRF Ratio Negative signal (without protein). The concentrations of protein and peptide that allow the maximum specific signal without saturation were selected to perform HRTF screening assay described below.
(§5) The compounds were dissolved in DMSO at a stock concentration of 10 mM and dispensed into microplate using the Echo acoustic liquid handler (Labcyte, Beckman Coulter, USA). The assay covers a window of compound concentrations from 20 μM to 20 nM spread in 11 data points in duplicate. Solvent and compound controls were added to each plate in order to calculate the background signal.
(§6) Ten microliters of 2× mix of 6His-protein and biotinylated peptide, the concentrations were determined above, were added to the dispensed compounds and incubated for one hour at room temperature in the dark. Ten microliters of the 2× detection mix was added to each well and the plate was incubated for another hour at room temperature in the dark and the plate was read in order to calculate the HTRF specific signal. The % inhibition values as follows:
(§7) The IC50 values were determined by plotting % inhibition vs compound concentration and fitting the data to a non-linear sigmoidal dose response equation (4 parameter fit): […]

MLLT3 = biological target: T2, MLLT3 (Homo sapiens, UniProt P42568); test: MLLT3 HTRF IC50 determination assay (H3K9cro peptide displacement); format: binding
T2 sequence (P42568 1-568): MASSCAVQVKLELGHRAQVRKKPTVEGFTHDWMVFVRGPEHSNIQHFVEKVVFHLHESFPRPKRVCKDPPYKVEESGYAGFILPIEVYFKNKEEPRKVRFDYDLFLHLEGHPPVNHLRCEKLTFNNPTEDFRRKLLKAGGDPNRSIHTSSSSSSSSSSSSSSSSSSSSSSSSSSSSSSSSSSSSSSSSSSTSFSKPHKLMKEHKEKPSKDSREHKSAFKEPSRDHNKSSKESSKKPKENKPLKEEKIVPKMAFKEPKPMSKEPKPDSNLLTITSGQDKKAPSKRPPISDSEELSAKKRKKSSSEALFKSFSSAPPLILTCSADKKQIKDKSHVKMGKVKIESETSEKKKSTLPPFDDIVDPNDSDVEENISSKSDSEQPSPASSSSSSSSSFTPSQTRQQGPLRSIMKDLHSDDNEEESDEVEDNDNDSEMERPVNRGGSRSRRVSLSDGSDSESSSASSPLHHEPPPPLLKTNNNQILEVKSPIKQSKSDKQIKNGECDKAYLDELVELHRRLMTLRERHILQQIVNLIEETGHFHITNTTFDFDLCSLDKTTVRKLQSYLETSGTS
Text: as §1, §2, §3, §4, §5, §6, §7

Structure (SMILES): Cc1nn(C)c2cc(C(=O)Nc3cc4[nH]c([C@H]5CCCN5C)cc4cn3)ccc12 (single isomer, unassigned) [Example 76]
IC50 (MV4-11 cells): 40 nM
IC50 (MLLT1; Table 5): 43 nM
IC50 (MLLT1; category, Table 4): ≤ 100 nM
IC50 (MLLT3; Table 5): 81 nM
IC50 (MLLT3; category, Table 4): ≤ 100 nM

IC50 (MLLT1; category, Table 4): 1000 to 10000 nM
IC50 (MLLT3; category, Table 4): 1000 to 10000 nM
Structure (SMILES): CN1CCCC1c1[nH]c2cc(NC(=O)c3ccc4c(cnn4C)c3)ncc2c1F (single isomer, unassigned) [Example 86, N-{3-fluoro-2-[(rel-2S)-1-methylpyrrolidin-2-yl]-1H-pyrrolo[3,2-c]pyridin-6-yl}-1-methylindazole-5-carboxamide]

IC50 (MLLT1; category, Table 4): ≤ 100 nM
IC50 (MLLT3; category, Table 4): ≤ 100 nM
Structure (SMILES): CN1CCCC1c1[nH]c2cc(NC(=O)c3ccc4c(cnn4C)c3)ncc2c1F (single isomer, unassigned) [Example 87, N-{3-fluoro-2-[(rel-2R)-1-methylpyrrolidin-2-yl]-1H-pyrrolo[3,2-c]pyridin-6-yl}-1-methylindazole-5-carboxamide]

Structure (SMILES): Cc1nn(C)c2cc(C(=O)Nc3cc4[nH]c(C5CCCN5C)c(F)c4cn3)ccc12 (single isomer, unassigned) [Example 88, N-{3-fluoro-2-[(rel-2R)-1-methylpyrrolidin-2-yl]-1H-pyrrolo[3,2-c]pyridin-6-yl}-1,3-dimethylindazole-6-carboxamide]
IC50 (MLLT1; Table 5): 17 nM
IC50 (MLLT1; category, Table 4): ≤ 100 nM
IC50 (MLLT3; Table 5): 37 nM
IC50 (MLLT3; category, Table 4): ≤ 100 nM

Structure (SMILES): Cc1nn(C)c2cc(C(=O)Nc3cc4[nH]c(C5CCCN5C)c(F)c4cn3)ccc12 (single isomer, unassigned) [Example 89, N-{3-fluoro-2-[(rel-2S)-1-methylpyrrolidin-2-yl]-1H-pyrrolo[3,2-c]pyridin-6-yl}-1,3-dimethylindazole-6-carboxamide]
IC50 (MLLT1; category, Table 4): 100 to 1000 nM
IC50 (MLLT3; category, Table 4): 1000 to 10000 nM

Structure (SMILES): Cc1c(C2CCCN2C)[nH]c2cc(NC(=O)c3ccc4c(C)nn(C)c4c3)ncc12 (single isomer, unassigned) [Example 90, 1,3-dimethyl-N-{3-methyl-2-[(rel-2R)-1-methylpyrrolidin-2-yl]-1H-pyrrolo[3,2-c]pyridin-6-yl}indazole-6-carboxamide]
IC50 (MLLT1; Table 5): 12 nM
IC50 (MLLT1; category, Table 4): ≤ 100 nM
IC50 (MLLT3; Table 5): 45 nM
IC50 (MLLT3; category, Table 4): ≤ 100 nM

Structure (SMILES): Cc1c(C2CCCN2C)[nH]c2cc(NC(=O)c3ccc4c(C)nn(C)c4c3)ncc12 (single isomer, unassigned) [Example 91, 1,3-dimethyl-N-{3-methyl-2-[(rel-2S)-1-methylpyrrolidin-2-yl]-1H-pyrrolo[3,2-c]pyridin-6-yl}indazole-6-carboxamide]
IC50 (MLLT1; category, Table 4): 1000 to 10000 nM
IC50 (MLLT3; category, Table 4): 1000 to 10000 nM

Structure (SMILES): Cc1nc(NC(=O)c2ccc3c(C)nn(C)c3c2)cc2[nH]c(C3CCCN3C)cc12 (single isomer, unassigned) [Example 92, 1,3-dimethyl-N-{4-methyl-2-[(rel-2R)-1-methylpyrrolidin-2-yl]-1H-pyrrolo[3,2-c]pyridin-6-yl}indazole-6-carboxamide]
IC50 (MLLT1; Table 5): 37 nM
IC50 (MLLT1; category, Table 4): ≤ 100 nM
IC50 (MLLT3; Table 5): 63 nM
IC50 (MLLT3; category, Table 4): ≤ 100 nM

Structure (SMILES): Cc1nc(NC(=O)c2ccc3c(C)nn(C)c3c2)cc2[nH]c(C3CCCN3C)cc12 (single isomer, unassigned) [Example 93, 1,3-dimethyl-N-{4-methyl-2-[(rel-2S)-1-methylpyrrolidin-2-yl]-1H-pyrrolo[3,2-c]pyridin-6-yl}indazole-6-carboxamide]
IC50 (MLLT1; category, Table 4): 1000 to 10000 nM
IC50 (MLLT3; category, Table 4): 1000 to 10000 nM

Structure (SMILES): Cc1nn(C)c2cc(C(=O)Nc3cc4[nH]c([C@H]5CCCN5C)c(Cl)c4cn3)ccc12 [Example 80, N-{3-chloro-2-[(2R)-1-methylpyrrolidin-2-yl]-1H-pyrrolo[3,2-c]pyridin-6-yl}-1,3-dimethylindazole-6-carboxamide]
IC50 (MLLT1; Table 5): 6 nM
IC50 (MLLT1; category, Table 4): ≤ 100 nM
IC50 (MLLT3; Table 5): 22 nM
IC50 (MLLT3; category, Table 4): ≤ 100 nM

Structure (SMILES): Cc1nn(C)c2cc(C(=O)Nc3cc4[nH]c([C@@H]5CCCN5C)c(Cl)c4cn3)ccc12 [Example 81, N-{3-chloro-2-[(2S)-1-methylpyrrolidin-2-yl]-1H-pyrrolo[3,2-c]pyridin-6-yl}-1,3-dimethylindazole-6-carboxamide]
IC50 (MLLT1; category, Table 4): 100 to 1000 nM
IC50 (MLLT3; category, Table 4): 1000 to 10000 nM
